Results from ChEMBL document CHEMBL2406999, “Vialinin A is a ubiquitin-specific peptidase inhibitor” (Bioorg Med Chem Lett, 2013).
The source made the active and inactive calls. The calls are words filed in the database; no cut-off is given here. Square brackets hold non-standard residues; d marks the D form. Peptide text beside a SMILES is read from it. * marks the point of attachment. Nle = CCCC[C@H](N)C(=O)O; Cbz = O=C(OCc1ccccc1)*

Legend:
[1] = molecular target: T1, Ubiquitin carboxyl-terminal hydrolase 5 (Homo sapiens, UniProt P45974); test: Inhibition of USP5 in human Z138 cells after 1 hr by immunoblotting analysis; assay type: cell-based
T1 sequence (P45974 whole entry): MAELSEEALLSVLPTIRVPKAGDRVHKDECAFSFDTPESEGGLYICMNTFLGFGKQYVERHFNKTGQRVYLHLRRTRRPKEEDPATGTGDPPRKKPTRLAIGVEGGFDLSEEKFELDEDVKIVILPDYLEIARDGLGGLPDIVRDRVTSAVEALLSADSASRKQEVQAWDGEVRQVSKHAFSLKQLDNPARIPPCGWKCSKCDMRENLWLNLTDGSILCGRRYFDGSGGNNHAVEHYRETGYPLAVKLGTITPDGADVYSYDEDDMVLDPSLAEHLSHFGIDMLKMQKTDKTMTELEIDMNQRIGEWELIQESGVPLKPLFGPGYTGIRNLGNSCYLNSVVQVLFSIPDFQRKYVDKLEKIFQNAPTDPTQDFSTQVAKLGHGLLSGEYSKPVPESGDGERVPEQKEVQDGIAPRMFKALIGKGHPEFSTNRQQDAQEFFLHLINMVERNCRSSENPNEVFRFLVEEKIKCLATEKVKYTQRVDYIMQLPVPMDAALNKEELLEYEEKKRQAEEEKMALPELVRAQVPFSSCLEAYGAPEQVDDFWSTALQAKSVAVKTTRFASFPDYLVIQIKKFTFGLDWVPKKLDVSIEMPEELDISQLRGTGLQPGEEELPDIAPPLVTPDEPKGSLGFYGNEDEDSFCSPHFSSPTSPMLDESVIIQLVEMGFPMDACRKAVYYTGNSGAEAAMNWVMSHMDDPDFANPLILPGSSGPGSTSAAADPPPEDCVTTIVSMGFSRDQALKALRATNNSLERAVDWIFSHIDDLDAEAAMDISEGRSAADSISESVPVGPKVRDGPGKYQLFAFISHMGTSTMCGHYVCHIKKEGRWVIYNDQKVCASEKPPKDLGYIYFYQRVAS

[2] = molecular target: Ubiquitin carboxyl-terminal hydrolase 9X (Homo sapiens, UniProt Q93008); test: Inhibition of USP9x in human Z138 cells after 1 hr by immunoblotting analysis; assay type: cell-based
[3] = molecular target: T2, Ubiquitin carboxyl-terminal hydrolase isozyme L1 (Homo sapiens, UniProt P09936); test: Inhibition of UCH-L1 in human Z138 cells after 1 hr by immunoblotting analysis; assay type: cell-based
T2 sequence (P09936 whole entry): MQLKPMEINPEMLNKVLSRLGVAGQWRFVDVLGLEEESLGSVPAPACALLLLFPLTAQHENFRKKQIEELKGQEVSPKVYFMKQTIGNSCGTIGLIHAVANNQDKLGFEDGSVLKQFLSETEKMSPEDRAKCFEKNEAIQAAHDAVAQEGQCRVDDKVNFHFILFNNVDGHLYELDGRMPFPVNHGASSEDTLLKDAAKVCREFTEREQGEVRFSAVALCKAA

[4] = molecular target: T3, Ubiquitin carboxyl-terminal hydrolase 5 (Homo sapiens) (UniProt P45974); test: Inhibition of human USP5 using Ub4 as substrate at 50 uM after 10 mins by SDS-PAGE analysis
T3 sequence (whole entry): T1 sequence (P45974 whole entry)

[5] = molecular target: T3, Ubiquitin carboxyl-terminal hydrolase 5 (Homo sapiens); test: Inhibition of human USP5 using Ub-AMC as substrate at 1 to 20 uM after 10 mins by fluorometric analysis
[6] = molecular target: T3, Ubiquitin carboxyl-terminal hydrolase 5 (Homo sapiens); test: Inhibition of wild type human USP5 expressed in Escherichia coli BL21(DE3) using K48-linked tetraubiquitin as substrate assessed as substrate hydrolysis at 20 uM after 15 mins by SDS-PAGE analysis
[7] = molecular target: T4, Ubiquitin carboxyl-terminal hydrolase 4 (Homo sapiens) (UniProt Q13107); test: Inhibition of human USP4 using Ub-AMC as substrate at 1 to 20 uM after 10 mins by fluorometric analysis
T4 sequence (whole entry): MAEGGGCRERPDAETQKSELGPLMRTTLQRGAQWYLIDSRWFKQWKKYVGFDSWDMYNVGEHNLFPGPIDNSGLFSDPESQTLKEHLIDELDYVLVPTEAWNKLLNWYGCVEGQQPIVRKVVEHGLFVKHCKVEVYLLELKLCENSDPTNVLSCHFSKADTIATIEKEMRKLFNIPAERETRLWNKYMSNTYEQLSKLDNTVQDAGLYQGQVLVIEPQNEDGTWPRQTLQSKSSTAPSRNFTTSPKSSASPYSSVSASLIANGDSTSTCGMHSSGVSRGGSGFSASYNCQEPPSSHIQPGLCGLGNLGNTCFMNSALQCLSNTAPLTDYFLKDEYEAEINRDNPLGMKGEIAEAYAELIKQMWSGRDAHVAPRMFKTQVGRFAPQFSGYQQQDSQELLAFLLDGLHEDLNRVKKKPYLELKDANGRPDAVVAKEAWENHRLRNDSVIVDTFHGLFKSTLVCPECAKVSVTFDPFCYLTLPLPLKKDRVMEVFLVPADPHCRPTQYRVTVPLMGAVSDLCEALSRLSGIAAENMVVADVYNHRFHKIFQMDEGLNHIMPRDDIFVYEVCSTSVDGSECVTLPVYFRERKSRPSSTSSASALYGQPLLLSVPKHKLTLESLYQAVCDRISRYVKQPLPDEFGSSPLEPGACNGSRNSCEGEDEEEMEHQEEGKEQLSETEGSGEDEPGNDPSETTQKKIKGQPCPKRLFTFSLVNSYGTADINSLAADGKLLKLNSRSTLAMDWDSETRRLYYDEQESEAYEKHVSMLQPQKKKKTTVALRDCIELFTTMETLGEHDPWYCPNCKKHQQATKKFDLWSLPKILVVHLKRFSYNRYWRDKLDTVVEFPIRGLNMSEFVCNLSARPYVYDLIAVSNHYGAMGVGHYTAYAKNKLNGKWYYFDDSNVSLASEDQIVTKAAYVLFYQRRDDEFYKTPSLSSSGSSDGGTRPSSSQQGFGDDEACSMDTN

[8] = molecular target: Ubiquitin carboxyl-terminal hydrolase isozyme L1 (Homo sapiens) (UniProt P09936); test: Inhibition of human UCH-L1 using Ub-AMC as substrate at 1 to 20 uM after 10 mins by fluorometric analysis
[9] = molecular target: T3, Ubiquitin carboxyl-terminal hydrolase 5 (Homo sapiens); test: Competitive binding affinity to human recombinant USP5 after 1 hr by SDS-PAGE analysis in presence of biotin-DMT
[10] = molecular target: Ubiquitin carboxyl-terminal hydrolase isozyme L1 (Homo sapiens) (UniProt P09936); test: Binding affinity to human UCH-L1 after 1 hr by SDS-PAGE analysis
RBL-2H3 = test: Binding affinity to USP5 in rat RBL2H3 cell extracts at 1 to 100 uM by SDS-PAGE analysis; assay type: cell-free
[11] = molecular target: T3, Ubiquitin carboxyl-terminal hydrolase 5 (Homo sapiens); test: Binding affinity to human recombinant USP5 by SDS-PAGE analysis
[12] = molecular target: T3, Ubiquitin carboxyl-terminal hydrolase 5 (Homo sapiens); test: Inhibition of wild type human USP5 expressed in Escherichia coli BL21(DE3) using K48-linked tetraubiquitin as substrate assessed as substrate hydrolysis at 5 to 50 uM after 15 mins by SDS-PAGE analysis
[13] = molecular target: T4, Ubiquitin carboxyl-terminal hydrolase 4 (Homo sapiens); test: Binding affinity to human USP4 after 1 hr by SDS-PAGE analysis

Sequence of Ubiquitin carboxyl-terminal hydrolase 9X (Q93008 whole entry): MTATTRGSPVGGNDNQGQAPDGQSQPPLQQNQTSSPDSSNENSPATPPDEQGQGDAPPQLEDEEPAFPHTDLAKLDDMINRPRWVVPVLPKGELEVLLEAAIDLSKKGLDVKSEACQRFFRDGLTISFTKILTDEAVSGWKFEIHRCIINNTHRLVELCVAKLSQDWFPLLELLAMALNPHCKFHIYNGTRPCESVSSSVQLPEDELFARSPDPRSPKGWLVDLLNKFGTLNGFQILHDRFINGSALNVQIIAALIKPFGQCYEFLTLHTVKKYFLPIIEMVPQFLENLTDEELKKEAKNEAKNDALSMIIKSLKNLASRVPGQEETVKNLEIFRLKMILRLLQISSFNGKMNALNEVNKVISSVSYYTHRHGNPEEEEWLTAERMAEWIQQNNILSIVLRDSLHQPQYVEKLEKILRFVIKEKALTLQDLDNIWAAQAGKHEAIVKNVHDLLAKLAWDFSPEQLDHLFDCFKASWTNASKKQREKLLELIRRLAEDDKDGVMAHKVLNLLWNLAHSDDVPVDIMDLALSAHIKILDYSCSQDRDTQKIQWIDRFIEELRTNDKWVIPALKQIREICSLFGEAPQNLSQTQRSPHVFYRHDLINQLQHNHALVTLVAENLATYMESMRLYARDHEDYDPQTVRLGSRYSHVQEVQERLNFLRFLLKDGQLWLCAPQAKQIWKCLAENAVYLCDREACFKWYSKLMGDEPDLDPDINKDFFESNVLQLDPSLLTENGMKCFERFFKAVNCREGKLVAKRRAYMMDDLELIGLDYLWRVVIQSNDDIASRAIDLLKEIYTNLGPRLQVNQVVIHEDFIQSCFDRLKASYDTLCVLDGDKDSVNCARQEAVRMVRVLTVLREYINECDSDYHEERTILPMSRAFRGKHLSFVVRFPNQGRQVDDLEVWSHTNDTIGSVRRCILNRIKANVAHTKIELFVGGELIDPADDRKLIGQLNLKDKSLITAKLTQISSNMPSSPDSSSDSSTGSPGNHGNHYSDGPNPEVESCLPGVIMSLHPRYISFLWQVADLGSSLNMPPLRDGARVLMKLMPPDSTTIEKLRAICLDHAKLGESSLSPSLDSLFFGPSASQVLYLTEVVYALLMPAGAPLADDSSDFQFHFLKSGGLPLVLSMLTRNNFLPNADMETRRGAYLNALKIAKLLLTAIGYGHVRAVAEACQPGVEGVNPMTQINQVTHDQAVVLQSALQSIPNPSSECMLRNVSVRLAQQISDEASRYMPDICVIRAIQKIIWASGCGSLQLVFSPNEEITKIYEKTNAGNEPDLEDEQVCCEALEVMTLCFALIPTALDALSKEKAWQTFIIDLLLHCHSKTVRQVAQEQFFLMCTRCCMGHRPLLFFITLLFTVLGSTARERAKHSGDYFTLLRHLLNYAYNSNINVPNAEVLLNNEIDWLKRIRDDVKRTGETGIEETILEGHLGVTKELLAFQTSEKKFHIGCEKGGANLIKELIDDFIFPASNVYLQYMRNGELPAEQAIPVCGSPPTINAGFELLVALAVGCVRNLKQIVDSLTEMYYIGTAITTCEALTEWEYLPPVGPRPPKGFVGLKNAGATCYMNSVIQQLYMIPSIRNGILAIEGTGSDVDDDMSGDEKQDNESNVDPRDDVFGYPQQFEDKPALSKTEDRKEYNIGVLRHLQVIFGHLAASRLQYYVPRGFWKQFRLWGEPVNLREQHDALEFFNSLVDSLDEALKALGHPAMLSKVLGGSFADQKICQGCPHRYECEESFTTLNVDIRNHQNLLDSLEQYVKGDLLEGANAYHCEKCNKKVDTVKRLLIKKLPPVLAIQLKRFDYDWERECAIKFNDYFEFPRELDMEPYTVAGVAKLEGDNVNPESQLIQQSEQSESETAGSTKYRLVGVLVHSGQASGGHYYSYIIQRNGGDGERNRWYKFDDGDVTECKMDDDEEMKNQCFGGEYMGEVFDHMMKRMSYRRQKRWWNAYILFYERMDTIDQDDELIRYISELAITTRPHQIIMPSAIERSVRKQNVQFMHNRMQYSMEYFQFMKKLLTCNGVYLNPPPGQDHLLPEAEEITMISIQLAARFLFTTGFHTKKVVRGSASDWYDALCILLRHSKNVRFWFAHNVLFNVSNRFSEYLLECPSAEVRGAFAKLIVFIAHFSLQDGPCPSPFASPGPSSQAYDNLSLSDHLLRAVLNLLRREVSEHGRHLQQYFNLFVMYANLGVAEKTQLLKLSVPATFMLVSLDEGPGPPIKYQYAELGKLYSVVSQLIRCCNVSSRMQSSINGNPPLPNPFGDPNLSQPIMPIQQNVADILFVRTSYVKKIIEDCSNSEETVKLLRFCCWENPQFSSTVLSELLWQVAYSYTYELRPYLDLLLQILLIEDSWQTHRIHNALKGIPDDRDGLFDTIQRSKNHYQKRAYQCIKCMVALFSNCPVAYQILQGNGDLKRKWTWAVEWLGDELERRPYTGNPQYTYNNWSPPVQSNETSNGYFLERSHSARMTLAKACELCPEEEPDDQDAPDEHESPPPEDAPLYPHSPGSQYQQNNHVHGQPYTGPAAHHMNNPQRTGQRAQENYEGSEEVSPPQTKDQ

CCC[C@H](NC(=O)/C(C#N)=C/c1cccc(Br)n1)c1ccccc1
IC50 [1]: 3 µM | IC50 [2]: 3 µM | IC50 [3]: 3 µM

COc1ccc(C(=O)ONC(=O)CNC(=O)[C@H](Cc2ccccc2)NC(=O)OCc2ccccc2)cc1
inhibition [4]: inactive

Cc1c(C)c(-c2ccc(O)cc2)c(O)c(O)c1-c1ccc(O)cc1
inhibition [5]: Active | inhibition [6]: Active | inhibition [7]: Active | inhibition [8]: Active | Activity [9]: Active

Cc1c(C)c(-c2ccc(OCc3cn(CCCCCCNC(=O)CCCC[C@@H]4SC[C@@H]5NC(=O)N[C@@H]54)nn3)cc2)c(O)c(O)c1-c1ccc(O)cc1
inhibition [10]: inactive | Activity (RBL-2H3): Active | Activity [11]: Active | inhibition [12]: Active | inhibition [13]: Active

O=C(CCCC[C@@H]1SC[C@@H]2NC(=O)N[C@@H]21)NCCCCCCn1cc(COc2ccccc2)nn1
Activity [11]: inactive

CCCC[C@@H](C=O)NC(=O)[C@H](CC(C)C)NC(=O)[C@H](CC(C)C)NC(C)=O (Ac-Leu-Leu-[Nle]-aldehyde)
inhibition [4]: inactive

CC(C)C[C@H](NC(=O)OCc1ccccc1)C(=O)N[C@H](C=O)Cc1ccccc1 (Cbz-Leu-Phe-aldehyde)
inhibition [4]: inactive
